Columns and labels:
[1] = test system: EP4 receptor; settings: Suzawa et al., 2000; Shibuya et al., 2002; cited from earlier work
[2] = test system: Akt phosphorylation in BV-2 cells; test: phospho-Akt quantitative Western (Ser473) and ELISA (Thr308) in LPS-treated BV-2 cells; assay type: cell-based, murine
Procedure: Nuclear and cytoplasmic fractions of BV-2 cells were prepared at several time points after treatment (0-120 minutes) using the nuclear extract kit from Active Motif (Carlsbad, Calif.). Briefly, cells were washed, collected in ice-cold PBS in the presence of phosphatase inhibitors, and centrifuged at 300×g for 5 min at 4° C. Cell pellets were resuspended in hypotonic buffer, treated with detergent, and centrifuged at 14,000×g for 30 sec at 4° C. After collection of the cytoplasmic fraction, nuclei were solubilized for 30 min in lysis buffer containing protease inhibitors. Lysates were centrifuged at 14,000×g for 30 min at 4° C. and supernatants were collected for NF-κB studies. To prepare whole cell lysates for phospho-Akt and phospho-IKK studies, cells were washed in ice-cold PBS and lysed in 20 mM Tris-HCl, pH 7.5, 150 mM NaCl, 1 mM Na2EDTA, 1 mM EGTA, 1% Triton, 2.5 mM sodium pyrophosphate, 1 mM β-glycerophosphate, 1 mM orthovanadate, 1 μg/ml leupeptin and 1 mM PMSF. Lysates were sonicated for 5 seconds, centrifuged at 14,000×g for 10 min at 4° C. and supernatants were collected for phospho-Akt and phospho-IKK studies. All protein concentrations were determined using the Bradford protein assay.
Western blot analysis. […] Immunoreactivity was detected using either sheep anti-rabbit or sheep anti-mouse HRP-conjugated secondary antibody (Amersham Biosciences, Arlington Heights, Ill.), followed by enhanced chemiluminescence (Pierce). Autoradiographic signals were quantified using NIH Image. […]
Measurements of phospho-Akt and total Akt were determined using the PathScan phospho-Akt (Thr308) and total Akt1 ELISA kits (Cell Signaling Technology, Danvers, Mass.). […]
In addition to its known Gas coupling to PKA, the EP4 receptor can signal via PI3K and Akt via a Gαi subunit (Fujino et al., 2002; Fujino & Regan, 2006). To further investigate whether EP4 signaling modulates PI3K/Akt pathway activity in LPS-stimulated BV-2 cells, levels of phospho-Akt were measured using quantitative Western analysis (phosphorylated Ser473 Akt; FIG. 3C) and ELISA (phosphorylated Thr308 Akt; FIG. 3D). […]

Structure (SMILES): COCc1ccccc1CC[C@H](O)/C=C/[C@H]1[C@H](O)CC(=O)[C@@H]1SCCCSCC(=O)O [AE1-329]
- selectivity for the EP4 receptor [1]: selectivity for the EP4 receptor has been previously established
- Akt phosphorylation, agonist alone ([2]; BV-2 cells, in the absence of LPS): did not alter Akt phosphorylation
- phospho-Ser473 Akt signal (quantitative Western) ([2]; LPS (100 ng/ml) treated BV-2 cells, AE1-329 100 nM, over 60 minutes): significant attenuation
- phospho-Thr308 Akt (ELISA, p-Akt/Akt) ([2]; LPS-treated BV-2 cells, AE1-329 100 nM, 60 minutes): significant decrease
